{"source": "patent US20230364419A1", "about": "“USE OF E[…] ENHANCE THE DELIVERY OF PHARMACEUTICAL AGENTS AND OTHER […] THE SURFACE MUCOSA AND WALL OF THE URETER AND RENAL PELVIS, AND INTO THE RENAL PARENCHYMA” (priority 2022, published 2023)", "key": {"[1]": {"assay": "Porcine ureteral EMDA proof-of-concept study: methylene blue infused through the ureteral catheter with or without current", "assay_type": "in vivo, Yorkshire pigs", "conditions": "for microscopic penetration of methylene blue into the ureteral wall (frozen section / histopathology): 20 min, infusion 5 ml/min", "from_the_text": "Cystoscopy is used to place a 0.035 in. guidewire into the ureter and up into the renal pelvis. The cystoscope is removed and the EMDA delivery catheter is advanced over the 0.035-inch super-stiff guidewire into the ureter up to the level of the ureteropelvic junction (i.e., not into the renal pelvis). A fluoroscopic image is obtained to confirm the correct position of the catheter in the ureter with the proximal tip just inside the renal pelvis. The 0.035 in. guidewire is removed and the silver wire is passed into the EMDA catheter. The circumference of the tip of silver wire (connected to positive electrode of EMDA generator) is larger than the exit hole in the distal tip of the EMDA catheter and thus its passage stops at the catheter’s tip and occludes the end-hole, thereby preventing any flow of instilled fluid from the tip of the catheter. A dispersing electrode (negative) is placed on the flank area. The EMDA is then activated and the fluid containing the intended medication is instilled at 5 ml/min via a drug infusion pump for 20 minutes.\nAn electrical current of 10 mA is used to achieve a current density of less than 0.5 mA/cm^2. This value was obtained based on prior work in other areas with regard to the safety and efficacy of EMDA. The ureteral surface was multiplied [20 cm (length)×(circumference≈1 cm) ≈20 cm^2] by 0.5 mA/cm^2. A pulsed or direct current can be used during EMDA.\nAs proof of concept, a porcine study was performed (IACUC approved protocol: 21-131). A charged molecule, methylene blue, was instilled which is suitable for EMDA because of its net positive charge, small molecular size, and strong blue color. Via the EMDA catheter, a pulsed electrical current of 10 mA was applied for 20 minutes during instillation of the methylene blue solution The pigs were then euthanized and both ureters were harvested. Visually, the difference in the color density in the experimental (EMDA ureter) and control ureter (without EMDA) was apparent.\nTwo Yorkshire pigs were placed under general anesthesia. Cystoscopy was used to place a 0.035 in. super-stiff™ guidewire into each ureter. A prefabricated ureteral catheter with equidistant (5 mm) fenestrations in three rows was advanced into each ureter. A silver wire was then passed into each ureteral catheter; the circumference of the silver wire was larger than the terminal opening in the catheter such that its passage stopped at the catheter’s tip, thereby preventing any flow of instilled fluid from the tip of the catheter. Methylene blue, a heterocyclic aromatic dye with a net positive charge, was infused through each catheter at a rate of 5 ml/min. In the experimental ureter, a positive pulsed electrical current of 10 mA was applied using a Physionizer® EDMA device. […]"}, "[2]": {"assay": "Methylene blue infusion into the renal pelvis with or without EMDA activation", "assay_type": "in vivo", "description": "In another example, cystoscopy was used to place a 0.035 in. guidewire into the ureter and pass it up into the renal pelvis. The cystoscope is removed and a 5 to 15 Fr pigtail catheter is advanced over the guidewire; the guidewire is removed. A retrograde pyelogram is performed and the fluid is then drained from the renal pelvis and measured in order to obtain the volume of the renal pelvis. The guidewire is replaced and the pigtail catheter is removed and the EMDA delivery catheter is advanced over the guidewire into the ureter. A fluoroscopic image is obtained to confirm the correct position of the catheter with the proximal tip inside the renal pelvis. The guidewire is removed and the catheter assumes its nonintubated “C” shape along its proximal end; the silver wire is passed into the EMDA catheter (alternatively a pre-assembled catheter will be deployed via a preplaced ureteral access sheath) following the “C” shape of the distal end of the catheter.\nFor renal pelvis EMDA, an electrical current of 4 mA (using a dedicated EMDA generator) is used in the C-shape catheter to achieve a current density of less than 0.5 mA/cm^2. This value is obtained based on prior work in the bladder with regard to the safety and efficacy of EMDA; the collecting system surface (8 cm^2) was multiplied by 0.5 mA/cm^2. A pulsed current is used during EMDA; however, direct current is also applicable."}}, "note": "“Also recorded” adds a separate entry of the source.", "data": [{"smiles": "CN(C)c1ccc2nc3ccc(=[N+](C)C)cc-3sc2c1", "note": "[methylene blue]", "values": [{"measurement": "microscopic penetration of methylene blue into the ureteral wall (frozen section / histopathology)", "setting": "[1]; control ureter, without EMDA", "value": "only patchy staining of the urothelium; also recorded: minimal, patchy staining of the urothelial lining with negligible penetration of methylene blue beyond the urothelium; also recorded: patchy methylene blue staining was seen only on the urothelium with negligible deeper penetration"}, {"measurement": "microscopic penetration of methylene blue into the ureteral wall (frozen section / histopathology)", "setting": "[1]; experimental ureter, with EMDA, pulsed current 10 mA", "value": "could be delivered beyond the urothelium and deeply into the wall of the ureter; also recorded: dense blue staining of the urothelium; also recorded: penetration of methylene blue throughout the wall of the EMDA treated ureter; also recorded: diffuse penetration of methylene blue into the urothelium, lamina propria, muscularis propria, and periureteral tissue"}, {"measurement": "macroscopic staining of the interior surface of the ureter", "setting": "[1]; with EMDA", "value": "intense staining of the experimental ureter"}, {"measurement": "macroscopic staining of the interior surface of the ureter", "setting": "[1]; without EMDA", "value": "minimal staining of the urothelial lining"}, {"measurement": "macroscopic staining of the renal pelvis", "setting": "[2]; with EMDA activation", "value": "Intense staining of the renal pelvis"}, {"measurement": "microscopic staining of urothelium and submucosa of the renal pelvis", "setting": "[2]; with EMDA activation", "value": "Deep blue staining of urothelium and the submucosa of the renal pelvis"}, {"measurement": "tissue injury of the renal pelvis (H&E staining)", "setting": "[2]; with EMDA activation", "value": "normal architecture with no signs of acute injury"}, {"measurement": "macroscopic staining of the renal pelvis", "setting": "[2]; without EMDA activation", "value": "Faint staining of the renal pelvis"}, {"measurement": "microscopic staining of urothelium and submucosa of the renal pelvis", "setting": "[2]; without EMDA activation", "value": "Blue staining of urothelium with less intensity and negligible methylene blue staining the submucosa of the renal pelvis"}, {"measurement": "tissue injury of the renal pelvis (H&E staining)", "setting": "[2]; without EMDA activation", "value": "normal architecture with no evidence of injury"}]}]}
